The record followed here is publication PMC7139940, “Comparative Analysis of High-Throughput Assays of Family-1 Plant Glycosyltransferases” (International Journal of Molecular Sciences, 2020).

SMILES strings stand for the structures.

The first assay concerns T1, UGT72B27.
T1 construct: recombinant GST fusion (pGEX-4T-1) from E. coli BL21(DE3) pLysS, purified on GST resin
Description: UDP-Glo luminescent UDP release assay, 384-well. It is filed as biochemical, Vitis vinifera. Particulars: 100 µM UDP-glucose, 50 mM Tris/HCl pH 7.5, 30 °C, 10 min, heat stop; poorly soluble, high DMSO; read-out: b. UDP-Glo^TM Assay / KM. The source says:
UDP-Glo luminescent UDP release assay, 384-well on UGT72B27
As for `Oc1ccc(/C=C/c2cc(O)cc(O)c2)cc1` [trans-Resveratrol], the Km was found to be 21 ± 5 µM.

The assay is the same for the next values; noted with them: 100 µM UDP-glucose, 50 mM Tris/HCl pH 7.5, 30 °C, 10 min, heat stop; read-out: b. UDP-Glo^TM Assay / KM.
In the case of `Oc1cc(O)cc(O)c1` [Phloroglucinol], the Km was determined as 35 ± 4 µM.

As for `COc1cccc(OC)c1O` [DMP, 2,6-Dimethoxyphenol], the Km was found to be 23 ± 3 µM. Turning to `Cc1ccccc1O` [o-Cresol], the Km is 40 ± 5 µM. Same read-out and setting: under `COc1ccccc1O` [Guaiacol, 2-Methoxyphenol] stands 23 ± 1 µM; under `Cc1ccc(C(C)C)c(O)c1` [Thymol], 28 ± 7 µM. Same read-out and setting: for `CC1=C(O)C(=O)C(C)O1` (centres unmarked) [Furaneol] the value was 453 ± 35 µM; for `Cc1cccc(O)c1` [m-Cresol], 14 ± 3 µM. For the molecule `Oc1ccccc1` [Phenol], the Km came out at 153 ± 24 µM. The same measure, in the same setting: under `COc1cc(C)ccc1O` [MMP, 2-Methoxy-4-methylphenol] stands 41 ± 9 µM. Consider `COc1cc(C)cc(OC)c1O` [MDMP, 4-Methyl-2,6-dimethoxyphenol], for which the Km was 173 ± 28 µM.
